# Assay results reported in patent US5583142A, “Analgesic and nootropic drugs” (priority 1992, dated 1996).
# Like-named read-outs stand apart in the source and are kept apart here.
# Legend:
# [1] = mouse passive avoidance test, amnesia induced by hypoxia; assay type: in vivo; conditions: 30 to 300 mg/kg i.p.
# Description: The nootropic action (learning facilitation, memory enhancement, intelligence booster, cognition activation) was assessed both in mouse and in rat by the two following methods: the mouse was tested by the passive avoidance method, using the so-called light-dark box. A painful stimulus, i.e. an electrically-evoked shock through the animal paws, and an unpleasant but not painful stimulus (mice fall into a water-ice mixture ensuing a sudden dark box floor opening) were used. A non-painful stimulus was required because the data referred to learning had not to be untruthfully negative due to the analgesic action of the claimed molecules. The painful stimulus (electric shock), like the unpleasant but not painful one, was effective at the interval of doses at which the claimed molecules were clearly nootropic but not yet analgesic. Independently of the type of stimulus used, the procedure consists of two experimental phases denominated, respectively, Training and Retention, the latter being carried out 24 hrs after the former. […] To this purpose the time taken by mice to enter the dark box is measured again: the longer the time recorded in the second day when compared with the first (Retention minus Training), the higher the mice learning and memorizing capabilities. […]
# [2] = mouse
# Description: In FIGS. 7 and 7 bis vertical lines give s.e. mean. Each column represents the mean of 6-10 mice. SM-21 maleate, PG-9 maleate, SM-32 oxalate, cocaine HCl, amphetamine sulphate and caffeine were administered 15 min before test.
smiles,measurement,setting,value
NC(=O)CN1CCCC1=O [Piracetam],effect on amnesia induced by hypoxia,[1],inactive
COC(=O)[C@H]1[C@@H](OC(=O)c2ccccc2)C[C@@H]2CC[C@H]1N2C [cocaine],motor activity and curiosity (exploration activity),[2]; in vivo,remarkably increase the motor activity
CN1CCC[C@H]1c1cccnc1 [nicotine],motor activity and curiosity (exploration activity),[2]; FIG. 7 and FIG. 7 bis,remarkably increase the motor activity
